Measurements published in ChEMBL document CHEMBL1144734, “Inhibitory effect of xanthones isolated from the pericarp of Garcinia mangostana L. on rat basophilic leukemia RBL-2H3 cell degranulation” (Bioorg Med Chem, 2008).
Activity calls are given as the source filed them. The rule behind the calls is not given here.

Key:
[1] = biological target: Mitogen-activated protein kinase 1 (ERK2), Rattus norvegicus (UniProt P63086); experiment: Inhibition of ERK2 phosphorylation in IgE-sensitized rat RBL2H3 cells […] at 100 uM after 30 mins; conditions: RBL-2H3
Sequence of Mitogen-activated protein kinase 1 (ERK2), Rattus norvegicus (P63086 whole entry, looked up): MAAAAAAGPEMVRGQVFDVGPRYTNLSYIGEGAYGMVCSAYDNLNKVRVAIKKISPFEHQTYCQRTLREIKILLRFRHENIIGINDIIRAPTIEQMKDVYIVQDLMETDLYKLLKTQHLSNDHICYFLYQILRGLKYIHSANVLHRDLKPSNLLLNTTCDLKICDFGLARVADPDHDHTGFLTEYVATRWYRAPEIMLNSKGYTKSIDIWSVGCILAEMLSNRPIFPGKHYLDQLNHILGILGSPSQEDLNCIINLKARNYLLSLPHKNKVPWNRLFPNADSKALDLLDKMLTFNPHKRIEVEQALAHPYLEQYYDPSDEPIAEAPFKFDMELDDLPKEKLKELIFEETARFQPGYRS

[2] = biological target: Mitogen-activated protein kinase 3 (ERK1), Rattus norvegicus (UniProt P21708); experiment: Inhibition of ERK1 phosphorylation in IgE-sensitized rat RBL2H3 cells […] at 100 uM after 30 mins; conditions: RBL-2H3
Sequence of Mitogen-activated protein kinase 3 (ERK1), Rattus norvegicus (P21708 whole entry, looked up): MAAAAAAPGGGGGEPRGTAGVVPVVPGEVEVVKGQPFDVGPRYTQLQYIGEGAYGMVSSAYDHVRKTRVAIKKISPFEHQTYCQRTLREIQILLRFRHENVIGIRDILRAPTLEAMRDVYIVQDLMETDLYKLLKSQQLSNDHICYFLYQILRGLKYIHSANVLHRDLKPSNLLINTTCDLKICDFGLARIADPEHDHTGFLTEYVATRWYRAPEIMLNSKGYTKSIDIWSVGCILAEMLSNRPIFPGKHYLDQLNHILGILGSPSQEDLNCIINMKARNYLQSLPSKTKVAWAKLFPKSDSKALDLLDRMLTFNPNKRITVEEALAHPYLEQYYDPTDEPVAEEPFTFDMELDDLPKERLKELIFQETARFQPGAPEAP

[3] = biological target: Mitogen-activated protein kinase 3 (ERK1), Rattus norvegicus (UniProt P21708); experiment: Inhibition of ERK1 phosphorylation in IgE-sensitized rat RBL2H3 cells […] at 2 uM after 30 mins; conditions: RBL-2H3
RBL-2H3 [4] = experiment: Inhibition of DNP-BSA stimulated histamine release in IgE-sensitized rat RBL2H3 cells after 30 mins; format: functional, cell-based
RBL-2H3 [5] = experiment: Inhibition of A23187-induced degranulation in rat RBL2H3 cells; format: functional, cell-based
RBL-2H3 [6] = experiment: Inhibition of DNP-BSA induced intracellular calcium elevation in IgE-sensitized rat RBL2H3 cells at 20 uM after 30 mins; format: functional, cell-based
RBL-2H3 [7] = experiment: Decrease in FcepsilonRI-induced intracellular ROS level in IgE-sensitized rat RBL2H3 cells assessed as DCF oxidation at 20 uM after 30 mins; format: functional, cell-based
[8] = biological target: Tyrosine-protein kinase Lyn (Rattus norvegicus) (UniProt Q07014); experiment: Inhibition of Lyn phosphorylation in IgE-sensitized rat RBL2H3 cells at 20 uM; format: cell-based; conditions: RBL-2H3
Sequence of Tyrosine-protein kinase Lyn (Rattus norvegicus) (Q07014 whole entry): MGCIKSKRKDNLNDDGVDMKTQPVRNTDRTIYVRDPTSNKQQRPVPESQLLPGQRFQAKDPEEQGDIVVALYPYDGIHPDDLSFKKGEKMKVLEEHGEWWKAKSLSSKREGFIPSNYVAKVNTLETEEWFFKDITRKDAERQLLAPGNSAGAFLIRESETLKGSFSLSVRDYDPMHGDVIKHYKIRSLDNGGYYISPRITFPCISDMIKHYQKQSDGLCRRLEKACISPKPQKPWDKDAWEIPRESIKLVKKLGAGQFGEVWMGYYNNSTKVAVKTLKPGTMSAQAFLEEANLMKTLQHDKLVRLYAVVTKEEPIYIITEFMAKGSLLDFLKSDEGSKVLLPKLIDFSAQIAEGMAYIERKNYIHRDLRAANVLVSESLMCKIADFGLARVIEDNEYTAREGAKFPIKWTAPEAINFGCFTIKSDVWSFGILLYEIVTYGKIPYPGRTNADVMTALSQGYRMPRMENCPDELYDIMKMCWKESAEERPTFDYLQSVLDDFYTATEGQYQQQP

[9] = biological target: Tyrosine-protein kinase SYK (Rattus norvegicus) (UniProt Q64725); experiment: Inhibition of Syk phosphorylation in IgE-sensitized rat RBL2H3 cells at 20 uM; format: cell-based; conditions: RBL-2H3
Sequence of Tyrosine-protein kinase SYK (Rattus norvegicus) (Q64725 whole entry, looked up): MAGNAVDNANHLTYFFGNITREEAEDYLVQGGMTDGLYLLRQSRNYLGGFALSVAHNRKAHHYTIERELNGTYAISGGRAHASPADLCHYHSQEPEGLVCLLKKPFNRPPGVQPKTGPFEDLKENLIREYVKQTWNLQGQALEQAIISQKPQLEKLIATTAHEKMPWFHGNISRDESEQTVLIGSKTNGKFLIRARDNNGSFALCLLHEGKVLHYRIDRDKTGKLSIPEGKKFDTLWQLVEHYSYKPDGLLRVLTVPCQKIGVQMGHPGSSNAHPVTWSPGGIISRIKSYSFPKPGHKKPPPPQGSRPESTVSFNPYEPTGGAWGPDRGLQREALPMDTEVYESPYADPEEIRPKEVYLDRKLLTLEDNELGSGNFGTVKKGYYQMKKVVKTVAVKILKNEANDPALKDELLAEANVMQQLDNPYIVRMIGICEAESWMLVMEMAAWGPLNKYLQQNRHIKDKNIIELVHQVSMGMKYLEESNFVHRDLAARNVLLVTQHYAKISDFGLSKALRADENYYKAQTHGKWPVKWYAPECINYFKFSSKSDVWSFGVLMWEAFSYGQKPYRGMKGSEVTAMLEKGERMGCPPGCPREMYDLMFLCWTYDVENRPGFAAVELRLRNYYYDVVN

RBL-2H3 [10] = experiment: Inhibition of p38 phosphorylation in IgE-sensitized rat RBL2H3 cells at 20 uM; format: cell-based
[11] = biological target: Mitogen-activated protein kinase 1 (ERK2), Rattus norvegicus (UniProt P63086); experiment: Inhibition of ERK2 phosphorylation in IgE-sensitized rat RBL2H3 cells at 20 uM; conditions: RBL-2H3
[12] = biological target: Mitogen-activated protein kinase 9 (JNK2), Rattus norvegicus (UniProt P49186); experiment: Inhibition of JNK2 phosphorylation in IgE-sensitized rat RBL2H3 cells at 20 uM; conditions: RBL-2H3
Sequence of Mitogen-activated protein kinase 9 (JNK2), Rattus norvegicus (P49186 whole entry, looked up): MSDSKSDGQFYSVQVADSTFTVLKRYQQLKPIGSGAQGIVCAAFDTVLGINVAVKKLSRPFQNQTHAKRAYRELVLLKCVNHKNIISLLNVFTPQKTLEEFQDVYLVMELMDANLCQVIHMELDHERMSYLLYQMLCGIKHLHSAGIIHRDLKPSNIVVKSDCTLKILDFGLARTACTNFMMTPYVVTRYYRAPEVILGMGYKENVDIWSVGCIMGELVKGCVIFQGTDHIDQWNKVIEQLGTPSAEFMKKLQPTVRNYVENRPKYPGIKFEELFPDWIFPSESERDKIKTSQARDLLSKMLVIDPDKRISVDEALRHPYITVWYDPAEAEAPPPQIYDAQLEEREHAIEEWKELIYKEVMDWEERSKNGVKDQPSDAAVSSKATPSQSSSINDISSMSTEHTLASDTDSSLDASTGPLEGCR

[13] = biological target: Mitogen-activated protein kinase 3 (ERK1), Rattus norvegicus (UniProt P21708); experiment: Inhibition of ERK1 phosphorylation in IgE-sensitized rat RBL2H3 cells at 20 uM; conditions: RBL-2H3
[14] = biological target: Mitogen-activated protein kinase 8 (JNK1), Rattus norvegicus (UniProt P49185); experiment: Inhibition of JNK1 phosphorylation in IgE-sensitized rat RBL2H3 cells at 20 uM; conditions: RBL-2H3
Sequence of Mitogen-activated protein kinase 8 (JNK1), Rattus norvegicus (P49185 whole entry, looked up): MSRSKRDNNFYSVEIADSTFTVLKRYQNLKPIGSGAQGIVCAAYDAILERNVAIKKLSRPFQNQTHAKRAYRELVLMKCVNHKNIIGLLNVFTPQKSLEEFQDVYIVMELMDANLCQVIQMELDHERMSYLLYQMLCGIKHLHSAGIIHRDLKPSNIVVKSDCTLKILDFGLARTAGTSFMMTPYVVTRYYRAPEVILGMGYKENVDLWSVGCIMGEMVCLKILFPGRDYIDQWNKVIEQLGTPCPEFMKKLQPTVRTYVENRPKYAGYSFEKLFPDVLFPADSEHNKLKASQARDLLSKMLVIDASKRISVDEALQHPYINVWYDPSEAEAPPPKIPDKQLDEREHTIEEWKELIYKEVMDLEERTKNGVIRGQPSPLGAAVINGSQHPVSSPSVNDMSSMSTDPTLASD

[15] = tested on: Phospholipase C-gamma-1, Rattus norvegicus; experiment: Inhibition of PLC-gamma1 phosphorylation in IgE-sensitized rat RBL2H3 cells at 20 uM; conditions: RBL-2H3
[16] = tested on: Phospholipase C-gamma-2, Rattus norvegicus; experiment: Inhibition of PLC-gamma2 phosphorylation in IgE-sensitized rat RBL2H3 cells at 20 uM; conditions: RBL-2H3
[17] = biological target: Tyrosine-protein kinase SYK (Rattus norvegicus) (UniProt Q64725); experiment: Inhibition of ERK1 phosphorylation in IgE-sensitized rat RBL2H3 cells […] at 50 uM after 30 mins; format: cell-based; conditions: RBL-2H3
[18] = biological target: Tyrosine-protein kinase SYK (Rattus norvegicus) (UniProt Q64725); experiment: Inhibition of ERK2 phosphorylation in IgE-sensitized rat RBL2H3 cells […] at 50 uM after 30 mins; format: cell-based; conditions: RBL-2H3
[19] = biological target: Mitogen-activated protein kinase 1 (ERK2), Rattus norvegicus (UniProt P63086); experiment: Inhibition of ERK2 phosphorylation in IgE-sensitized rat RBL2H3 cells […] at 2 uM after 30 mins; conditions: RBL-2H3
[20] = tested on: Radical scavenging activity; experiment: Antioxidant activity assessed as DPPH radical scavenging activity; format: functional

Compound | Activity (RBL-2H3 [4]) | Activity (RBL-2H3 [5]) | Activity (RBL-2H3 [6]) | Activity (RBL-2H3 [7]) | Activity [8] | Activity [9] | Activity (RBL-2H3 [10]) | Activity [11] | Activity [12] | Activity [13] | Activity [14] | other results
CN(C)C[C@H]1CCn2c(c(C3=C(c4cn(C)c5ccccc45)C(=O)NC3=O)c3ccccc32)C1 | – | – | – | – | – | – | – | – | – | – | – | Activity [1]: inactive; Activity [2]: inactive
COc1ccc2c(c1)c(C1=C(c3c[nH]c4ccccc34)C(=O)NC1=O)cn2CCCN(C)C | – | – | – | – | – | – | – | – | – | – | – | Activity [3]: inactive; Activity [1]: inactive
COc1c(O)cc2oc3cc(O)c(CC=C(C)C)c(O)c3c(=O)c2c1CC=C(C)C | Dose-dependent effect | inactive | Active | inactive | inactive | Active | inactive | Active | inactive | Active | inactive | –
COc1cc2oc3cc(O)c(OC)c(CC=C(C)C)c3c(=O)c2c(O)c1CC=C(C)C | Dose-dependent effect | inactive | Active | inactive | inactive | Active | inactive | Active | inactive | Active | inactive | Activity [15]: Active; Activity [16]: Active
COc1c(C[C@@H](C)OC(=O)Oc2ccc(O)cc2)c2c3c(C[C@@H](C)OC(=O)c4ccccc4)c(OC)c(=O)c4c(O)cc(OC)c(c5c(OC)cc(O)c(c1=O)c52)c43 | – | – | – | – | – | – | – | – | – | – | – | Activity [17]: inactive; Activity [18]: inactive
O=c1cc(N2CCOCC2)oc2c(-c3ccccc3)cccc12 | – | Active | – | – | – | – | – | – | – | – | – | Activity [19]: inactive
CC(C)=CCc1c(O)cc2oc3cc(O)c(O)c(CC=C(C)C)c3c(=O)c2c1O | Dose-dependent effect | inactive | Active | Active | inactive | Active | inactive | Active | inactive | Active | inactive | Activity [20]: Active
CC(=O)c1c(O)c(C)c(O)c(Cc2c(O)c3c(c(C(=O)/C=C/c4ccccc4)c2O)OC(C)(C)C=C3)c1O | – | – | – | – | – | – | – | – | – | – | – | Activity [19]: inactive; Activity [2]: inactive
